Experiments:
late watergrass [1] = assay: Test Example 1: herbicidal activity, application before weed generation under submerged conditions (Table 16, symbol A); type: in vivo, late watergrass (Echinochloa oryzicola); settings: 320 g/ha applied herbicide
How it was run: (§1)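 Submerged Wagner pots (alluvial soil, 4 cm water) sown with weed seeds and planted with 2.5-leaf rice seedlings; emulsifiable concentrate diluted in water applied to water surface on sowing day. Held in greenhouse at 25-30 °C; injury scored 0-5 by herbicidal rate after three weeks.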

Japanese bulrush = assay: Test Example 1: herbicidal activity, application before weed generation under submerged conditions (Table 16, symbol B); type: in vivo, Japanese bulrush (Schoenoplectus juncoides); settings: 320 g/ha applied herbicide
How it was run: as §1

late watergrass [2] = assay: Test Example 2: herbicidal activity, application during weed generation under submerged conditions (Table 17, symbol A); type: in vivo, late watergrass (Echinochloa oryzicola); settings: AAH 320 g/ha; application during weed generation, submerged conditions
How it was run: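 Steps: fill Wagner pots with alluvial soil; add water to give 4 cm depth; sow the species mixed; grow under glass at 25–30° C.; at 1–2 leaves apply water-diluted emulsion formulation to the water surface at a fixed herbicide amount; score after 3 weeks.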

Chinese sprangletop = assay: Test Example 3: herbicidal effect by foliage application, Wagner pot (Table 18, symbol D); type: in vivo, chinese sprangletop (Leptochloa chinensis); settings: 320 g/ha
How it was run: (§2)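 Plants were sown in alluvial soil held under 0.1–0.5 cm standing water and grown 14 days in a greenhouse at 25–30 °C. An emulsifiable formulation, water-diluted to the set dose, was then sprayed onto the foliage, and effects were scored three weeks later using previously defined criteria.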

rice flat sedge = assay: Test Example 3: herbicidal effect by foliage application, Wagner pot (Table 18, symbol E); type: in vivo, rice flat sedge (Cyperus iria); settings: 320 g/ha
How it was run: as §2

southern crabgrass = assay: Test Example 4: herbicidal effect by soil treatment (Table 19, symbol F); type: in vivo, southern crabgrass (Digitaria ciliaris); settings: amount of applied herbicide 320 g/ha
How it was run: (§3)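 Three weeks of greenhouse growth at 25° C. to 30° C. followed a uniform surface spray of water-diluted emulsion at a predetermined herbicide amount. Seeds had been sown beforehand under about 1.5 cm of sterilized diluvial soil. Grading followed criteria set out in an earlier test.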

wild oat [3] = assay: Test Example 4: herbicidal effect by soil treatment (Table 19, symbol I); type: in vivo, wild oat (Avena fatua); settings: amount of applied herbicide 320 g/ha
How it was run: as §3

Italian ryegrass [4] = assay: Test Example 4: herbicidal effect by soil treatment (Table 19, symbol K); type: in vivo, Italian ryegrass (Lolium multiflorum); settings: amount of applied herbicide 320 g/ha
How it was run: as §3

windgrass = assay: Test Example 4: herbicidal effect by soil treatment (Table 19, symbol L); type: in vivo, windgrass (Apera spica-venti); settings: amount of applied herbicide 320 g/ha
How it was run: as §3

lambsquarters = assay: Test Example 4: herbicidal effect by soil treatment (Table 19, symbol O); type: in vivo, lambsquarters (Chenopodium album); settings: amount of applied herbicide 320 g/ha
How it was run: as §3

chickweed = assay: Test Example 4: herbicidal effect by soil treatment (Table 19, symbol P); type: in vivo, common chickweed (Stellaria media); settings: amount of applied herbicide 320 g/ha
How it was run: as §3

green foxtail = assay: Test Example 5: herbicidal effect by foliage application, plastic box (Table 20, symbol G); type: in vivo, green foxtail (Setaria viridis); settings: foliage application, 320 g/ha, three weeks after application
How it was run: (§4)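 Plants sown in sterilized diluvial soil and grown 14 days in a greenhouse at 25° C to 30° C, then sprayed on the foliage with the compound's emulsion diluted in water to a predetermined herbicide amount. Injury to weeds and crops scored three weeks after application on a visual rating scale.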

barnyard grass = assay: Test Example 5: herbicidal effect by foliage application, plastic box (Table 20, symbol H); type: in vivo, barnyard grass (Echinochloa crus-galli); settings: foliage application, 320 g/ha, three weeks after application
How it was run: as §4

wild oat [5] = assay: Test Example 5: herbicidal effect by foliage application, plastic box (Table 20, symbol I); type: in vivo, wild oat (Avena fatua); settings: foliage application, 320 g/ha, three weeks after application
How it was run: as §4

blackgrass = assay: Test Example 5: herbicidal effect by foliage application, plastic box (Table 20, symbol J); type: in vivo, blackgrass (Alopecurus myosuroides); settings: foliage application, 320 g/ha, three weeks after application
How it was run: as §4

Italian ryegrass [6] = assay: Test Example 5: herbicidal effect by foliage application, plastic box (Table 20, symbol K); type: in vivo, Italian ryegrass (Lolium multiflorum); settings: foliage application, 320 g/ha, three weeks after application
How it was run: as §4

velvetleaf = assay: Test Example 5: herbicidal effect by foliage application, plastic box (Table 20, symbol M); type: in vivo, velvetleaf (Abutilon theophrasti); settings: foliage application, 320 g/ha, three weeks after application
How it was run: as §4

Row | Structure (SMILES) | Herbicidal effect on A: late watergrass (grade 0-5) (late watergrass [1]) | Herbicidal effect on B: Japanese bulrush (grade 0-5) (Japanese bulrush) | herbicidal effect rating, A: late watergrass (late watergrass [2]) | herbicidal effect on D (Chinese sprangletop), rating 0-5 (Chinese sprangletop) | herbicidal effect on E (rice flat sedge), rating 0-5 (rice flat sedge) | herbicidal effect rating, F: southern crabgrass (southern crabgrass) | herbicidal effect rating, I: wild oat (wild oat [3]) | herbicidal effect rating, K: Italian ryegrass (Italian ryegrass [4]) | herbicidal effect rating, L: windgrass (windgrass) | herbicidal effect rating, O: lambsquarters (lambsquarters) | herbicidal effect rating, P: chickweed (chickweed) | herbicidal effect grade, G: green foxtail (green foxtail) | herbicidal effect grade, H: barnyard grass (barnyard grass) | herbicidal effect grade, I: wild oat (wild oat [5]) | herbicidal effect grade, J: blackgrass (blackgrass) | herbicidal effect grade, K: Italian ryegrass (Italian ryegrass [6]) | herbicidal effect grade, M: velvetleaf (velvetleaf)
1 | Cc1nn(C)c(=O)c(-c2c(-c3ccccc3OC(F)(F)F)sc3ccccc23)c1O [1-030] | 2 (Herbicidal rate of 20% or more and less than 40%) | 5 (Herbicidal rate of 90% or more (almost completely withered)) | 1 (Herbicidal rate of 5% or more and less than 20%) | 3 (Herbicidal rate of 40% or more and less than 70%) | 4 (Herbicidal rate of 70% or more and less than 90%) | 5 (Herbicidal rate of 90% or more (almost completely withered)) | 1 (Herbicidal rate of 5% or more and less than 20%) | 3 (Herbicidal rate of 40% or more and less than 70%) | 5 (Herbicidal rate of 90% or more (almost completely withered)) | 5 (Herbicidal rate of 90% or more (almost completely withered)) | 5 (Herbicidal rate of 90% or more (almost completely withered)) | 5 (Herbicidal rate of 90% or more (almost completely withered)) | 4 (Herbicidal rate of 70% or more and less than 90%) | 4 (Herbicidal rate of 70% or more and less than 90%) | 5 (Herbicidal rate of 90% or more (almost completely withered)) | 4 (Herbicidal rate of 70% or more and less than 90%) | 5 (Herbicidal rate of 90% or more (almost completely withered))
2 | CCCC(=O)Oc1c(C)nn(C)c(=O)c1-c1c(-c2ccc(C(C)=NOC)cc2)sc2ccccc12 [1-044] | 5 (Herbicidal rate of 90% or more (almost completely withered)) | 5 (Herbicidal rate of 90% or more (almost completely withered)) | 4 (Herbicidal rate of 70% or more and less than 90%) | 4 (Herbicidal rate of 70% or more and less than 90%) | 5 (Herbicidal rate of 90% or more (almost completely withered)) | 2 (Herbicidal rate of 20% or more and less than 40%) | 0 (Herbicidal rate of 5% or less (almost no effect)) | 2 (Herbicidal rate of 20% or more and less than 40%) | 0 (Herbicidal rate of 5% or less (almost no effect)) | 4 (Herbicidal rate of 70% or more and less than 90%) | 5 (Herbicidal rate of 90% or more (almost completely withered)) | 5 (Herbicidal rate of 90% or more (almost completely withered)) | 3 (Herbicidal rate of 40% or more and less than 70%) | 4 (Herbicidal rate of 70% or more and less than 90%) | 3 (Herbicidal rate of 40% or more and less than 70%) | 4 (Herbicidal rate of 70% or more and less than 90%) | 5 (Herbicidal rate of 90% or more (almost completely withered))

From US20230085307A1, “PYRIDAZINONE COMPOUND AND HERBICIDE” (NISSAN CHEMICAL CORPORATION, priority 2019, published 2023)
